{"source": "patent US10653173B2", "about": "“Method for masking unpleasant taste” (Analyticon Discovery GmbH, priority 2015, dated 2020)", "key": {"[1]": {"test": "Sensory panel: taste modulation of green tea", "format": "in vivo, human", "details": "vs 0.5% ethanol in tea", "experimental": "The sensory evaluation of the samples was performed by a team of five experienced assessors. Details may be taken from the following Table 6: [table]"}, "[2]": {"test": "Sensory panel: taste modulation of a potassium chloride solution", "format": "in vivo, human", "details": "50 μM, pH neutral, 1,500 mg KCl in 100 ml water", "experimental": "The sensory evaluation of the samples was performed by a team of five experienced assessors. Details may be taken from the following Table 9: [table]"}, "[3]": {"test": "Sensory panel: taste modulation of grapefruit juice", "format": "in vivo, human", "experimental": "The sensory evaluation of the samples was performed by a team of five experienced assessors. Details may be taken from the following Table 7: [table]"}, "[4]": {"test": "Sensory panel: taste of combination with acesulfame-K", "format": "in vivo, human", "details": "25 μM with 150 ppm acesulfame-K, pH neutral", "experimental": "The sensory evaluation of the samples was performed by a team of five experienced assessors. The results may be taken from the following Table 4: [table]"}, "[5]": {"test_system": "human bitter receptor cells", "test": "In-vitro assay: intracellular calcium mobilisation (Fluo-4 AM) in human bitter receptor cell line stimulated with saccharin", "format": "cell-based", "details": "human taste cells stimulated with 1 mM saccharin, fluorometric detection, 0.1-25 μM substance; read-out: IC50 (average inhibitory concentration of the antagonist)", "experimental": "Human bitter receptor cells were established, and the activation of these cells was quantified in order to detect, by means of a cell-based test system, natural substances which reduce the bitterness of bitter principles. The change of the intracellular […] level was measured for quantitation of the activation of bitter receptor cells. In order to detect substances with inhibitory activity, a high-throughput cell-based in-vitro measurement system was established. […] The modulation of the intracellular […] level of the bitter receptor cells was quantitated by means of the […] fluorescence dye Fluo-4 AM in a microplate reader. […] The quantity of mobilised calcium may be quantitated by means of fluorescence, which increases in proportion with the concentration of calcium. […] 24 hours after seeding, the cells were dyed with 4 μM of the calcium-sensitive fluorescence dye Fluo-4 AM in HBSS (Hank's Balanced Salt Solution) buffer, and the mobilisation of calcium in living cells was measured in the microplate reader (FlexStation® […], Molecular Devices). […] The mobilisation of calcium was measured in the microplate reader at 37° C. The mobilisation of calcium was quantitated as the change of fluorescence (dF) after the addition of the substance, taking into account the basal fluorescence (F0) as dF/F0. […]"}, "[6]": {"test": "Sensory panel: taste of combination with saccharin", "format": "in vivo, human", "details": "10 μM with 80 ppm saccharin, pH neutral", "experimental": "The sensory evaluation of the samples was performed by a team of five experienced assessors. The results may be taken from the following Table 3: [table]"}, "[7]": {"details": "cited from earlier work"}}, "data": [{"compound": "CC(C)c1ccc2c(c1)CC[C@H]1[C@](C)(C(=O)O)CCC[C@]21C", "note": "[dehydroabietic acid]", "values": [{"measurement": "Evaluation (taste of green tea)", "setting": "[1]; 25 μM in Green tea", "value": "Slightly bitter taste that quickly fades"}, {"measurement": "Evaluation (taste of green tea)", "setting": "[1]; 50 μM in Green tea", "value": "As in 25 μM, but less astringent"}, {"measurement": "Evaluation (taste of potassium chloride solution)", "setting": "[2]", "value": "Less bitter than the comparison sample"}, {"measurement": "Bitter taste of freshly squeezed grapefruit juice", "setting": "[3]", "value": "significant reduction of the bitter taste without negatively influencing the fruit aroma and the refreshing tartness"}, {"measurement": "Evaluation (taste with acesulfame-K)", "setting": "[4]", "value": "No bitter taste present any more"}, {"measurement": "IC50", "setting": "[5]", "value": 1.7, "unit": "µM"}, {"measurement": "Evaluation (taste with saccharin)", "setting": "[6]", "value": "Slightly bitter aftertaste"}]}, {"compound": "C=C1C[C@@]23CC[C@H]4[C@@](C)(CCC[C@@]4(C)C(=O)O[C@@H]4O[C@H](CO)[C@@H](O)[C@H](O)[C@H]4O)[C@@H]2CC[C@]1(O[C@@H]1O[C@H](CO)[C@@H](O)[C@H](O)[C@H]1O[C@@H]1O[C@H](CO)[C@@H](O)[C@H](O)[C@H]1O)C3", "note": "[stevioside]", "values": [{"measurement": "Daily uptake considered harmless", "setting": "[7]", "value": "up to 4 mg per kilogramme of bodyweigh"}]}]}
